The text below walks through data of patent US20230358751A1, “METHODS FOR THE DETECTION AND TREATMENT OF PROSTATE CANCER” (Board of Regents, The University of Texas System, priority 2020, published 2023).

Each structure is given as a SMILES string. Like-named read-outs stand apart in the source and are kept apart here.

The subject of series [1] is PC-3M prostate cancer cells. On the procedure:
(§1) Horizontal axis=log(M); vertical axis=% viability relative to control. […] (i) vehicle (ii) 128 μM Eliglustat (iii) 64 μM PDMP (iv) 64 μM PPMP. Statistical significance was determined by 2-sided student t-test comparing the aggregate intensities of individual lipid species corresponding to the respective lipid domain.
(§2) To test this hypothesis, the efficacy of PDMP, PPMP and eliglustat three different inhibitors of glucosylceramide synthase (also known as UGCG; UDP-glucose:ceramide glucosyltransferase), a rate-limiting enzyme in glycosphingolipid metabolism, for reducing viability of RM-9 and PC-3M prostate cancer cells in vitro was then evaluated.

Series [2] concerns RM-9 prostate cancer cells. The protocol: as §1, §2
For series [3], the system named is RM-9 prostate cancer cells. Kind of series: Lipidome alterations after short-term pharmacological inhibition of UGCG in RM-9 cells. The settings on record: 6 hr, 128 μM Eliglustat, 64 μM PDMP, 64 μM PPMP. In kind it is cell-based, mouse. The source says: (§3) FIGS. 16A, 16B, and 16C show (16A) the induction of autophagy/mitophagy by exposure of PC-3M prostate cancer cells to Eliglustat. (i) cytotoxicity (ii) apoptosis at 4 hrs (iii) apoptosis at 24 hrs. N=3 biologically independent replicates per experimental condition. Values represent log(relative fluorescence units)±StDev. Also shown are volcano plots illustrating differences in annotated lipid species stratified by lipid domains in (16B) PC-3M and (16C) RM-9 prostate cancer cells following 6 hr challenge with 128 μM Eliglustat. (i) acylcarnitines (ii) cardiolipins (iii) diacylglycerols (iv) ether lysophospholipids (v) ether phospholipids (vi) lysophospholipids (vii) phospholipids (viii) cholesterol esters (ix) triacylglycerols (x) sphingomyelins. N=3 biologically independent replicates per experimental condition.
(§4) Sample Extraction Following transfections, cell lysates were washed 2× with pre-chilled 0.9% NaCl followed by addition of 2.5 mL of pre-chilled 3:1 isopropanol:ultrapure water. Cells were scraped using a 25 cm Cell Scraper (Sarstedt) in extraction solvent and transferred to a 15 mL conical tube (Eppendorf). Samples were briefly vortexed followed by centrifugation at 4° C. for 10 min at 2,000×g. Thereafter, 1.2 mL of metabolite extracts were transferred to 1.5 mL Eppendorf tubes and stored in −20° C. until metabolomic analysis.
(§5) Complex Lipids Pre-aliquoted EDTA plasma samples (10 μL) were extracted with 30 μL of LCMS grade 2-propanol (ThermoFisher) in a 96-well microplate (Eppendorf). Plates were heat sealed, vortexed for 5 min at 750 rpm, and centrifuged at 2000×g for 10 minutes at room temperature. The supernatant (10 μL) was carefully transferred to a 96-well plate, leaving behind the precipitated protein. The supernatant was further diluted with 90 μL of 1:3:2 100 mM ammonium formate, pH 3 (ThermoFisher): acetonitrile: 2-propanol and transferred to a 384-well microplate (Eppendorf) for lipids analysis using LCMS. […]

Series [4] has as its system PC-3M prostate cancer cells. Kind of series: Lipidome alterations after short-term pharmacological inhibition of UGCG in PC-3M cells. The format is cell-based, human. The settings on record: 6 hr, 128 μM Eliglustat, 64 μM PDMP, 64 μM PPMP.
Source text: as §3, §4, §5

For series [5], the system named is PC-3M cells. Kind of series: Mitophagy markers and mitochondrial morphology in PC-3M cells treated with eliglustat. In kind it is cell-based, human. The protocol: FIGS. 17A, 17B, 17C, and 17D show representative confocal microscopy images for PC-3M cells following 24 hr pre-transfection with (i) CellLight Mitochondria-RFP (leader sequence of E1 alpha pyruvate dehydrogenase) or (ii) CellLight Lysosome-GFP (lysosomal associated 1052 membrane protein 1) followed by acute (6 hr) treatment with either (17A) vehicle or (17C) Eliglustat (128 μM). (17B) and (17D) correspond to enlargements of features from (17A) and (17C), respectively. (iii) merged images.

For series [6], the system named is LNCaP cells. Kind of series: Viability (MTS assay) of LNCaP cells treated with eliglustat following Cav-1 overexpression. The format is cell-based, human. The note with it: 64 μM eliglustat. On the procedure: (§6) FIGS. 18A and 18B show (18A) the viability (MTS assay) of PC-3M cells treated with 128 μM eliglustat after (left) knockdown of CAV1: or (right) following pre-treatment with Cav-1 monoclonal blocking antibody: (i) siCtrl (ii) siCAV1-1 (iii) siCAV1-2 (iv) IgG=vehicle (v) IgG+Eliglustat (vi) abCAV1+Vehicle (vii) abCAV1+Eliglustat. (18B) Viability (MTS assay) of LNCaP cells treated with 64 μM eliglustat following Cav-1 overexpression.
On the technique in general: Formazan colour is commonly taken as a measure of viable cells.

In series [7] the test system is PC-3M prostate cancer cells. Kind of series: Cytotoxicity and apoptosis of PC-3M cells exposed to eliglustat. In kind it is cell-based. On the procedure: as §2
In series [8] the test system is RM-9 tumors. Kind of series: RM-9-luciferase subcutaneous tumor model in C57BL/6N mice. The format is in vivo, mouse. The protocol: FIGS. 19A, 19B, 19C, and 19D show the efficacy of eliglustat in an in vivo mouse model. (19A) Relative fluorescence units±SEM of RM-9 tumors following daily intraperitoneal injection with either (i) saline (n=23) or (ii) eliglustat (60 mg/kg) (n=9). (19B) Tumor Volume±SEM following treatment with either saline (n=15) or eliglustat (60 mg/kg) (n=8). Statistical significance was determined by 2-sided Wilcoxon-rank sum test. (19C) Representative IVIS images following treatment. (19D) Relative abundance (area units±StDev) of glycosphinoglipids in RM-9 tumors following treatment.
FIGS. 20A, 20B, 20C, 20D, 20E, and 20F show quantitative analyses derived from immunohistochemistry staining for (20A) Cav-1, (20B) BrdU-TUNEL, (20C) PCNA, (20D) HMGB1 and (20E) LC3B in RM-9 tumors following treatment with either saline (n=6-8 mice) or eliglustat (n=7 mice). Vertical axes are (20A) Cav-1 staining score, (20B) apoptotic bodies/fd, (20C) % of PCNA labeling, (20D) % of cytoplasmic HMGB1, and (20E) LC-3B positive cells/fd. Statistical significance was determined by 2-sided Wilcoxon rank sum test. Also shown is (20F) volcano plot illustrating fold change in individual annotated lipid species stratified by lipid domain in plasma of RM-9 bearing C57BL/6N mice or control mice. (i) acylcarnitines (ii) ceramides (iii) cholesterol esters (iv) diacylglycerols (v) free fatty acids (vi) glycosphingolipids (vii) lysophospholipids (viii) oxylipins (ix) phospholipids (x) sphingomyelins (x) triacylglycerols.
Inhibition of tumor growth by eliglustat was next examined. RM-9 cells harbor driver oncogenic RAS and MYC genes which model RAS-MAPK pathway activation and MYC-driven transcriptional activities which are associated with aggressive primary prostate cancer. RM-9-luciferase cells were subcutaneously implanted into C57BL/6N mice. RM-9 tumor growth was suppressed by eliglustat (FIGS. 19A, 19B, and 19C). […] In addition, plasma Cav-1 levels tended to be elevated in RM-9 tumor-bearing mice compared to control mice.

Series [9] relates to PC-3M cells. Kind of series: Viability (MTS assay) of PC-3M cells treated with eliglustat after CAV1 knockdown or Cav-1 blocking antibody. The format is cell-based, human. The note with it: 128 μM eliglustat. On the procedure: as §6
The mark [10] stands for this setting: immunohistochemistry, RM-9 tumors.

On to `CCCCCCCCCCCCCCCC(=O)N[C@H](CN1CCOCC1)[C@H](O)c1ccccc1` [PPMP, D-threo-1-phenyl-2-hexadecanoylamino-3-morpholino-1-propanol], for which the “cytotoxicity (viability relative to control)” value in series [1] and in [2] was “dose-dependent cytotoxicity” throughout. Besides, the “alterations in the lipidome” value in series [3] is “accumulation of intracellular ceramides, acylcarnitines, lysophospholipids and diacylglycerols and reductions in glycosphingolipids, phospholipids and triacylglycerols”; in series [4], “accumulation of intracellular ceramides, acylcarnitines, lysophospholipids and diacylglycerols and reductions in glycosphingolipids, phospholipids and triacylglycerols”.
As for `CCCCCCCCCC(=O)NC(CN1CCOCC1)C(O)c1ccccc1` (stereo not shown) [PDMP, 1-phenyl-2-decanoylamino-3-morpholino-1-propanol], the “cytotoxicity (viability relative to control)” value in series [1] and in series [2] was “dose-dependent cytotoxicity” in each case. The “alterations in the lipidome” value in [3] was “accumulation of intracellular ceramides, acylcarnitines, lysophospholipids and diacylglycerols and reductions in glycosphingolipids, phospholipids and triacylglycerols”; in series [4], “accumulation of intracellular ceramides, acylcarnitines, lysophospholipids and diacylglycerols and reductions in glycosphingolipids, phospholipids and triacylglycerols”.
For the compound `CCCCCCCC(=O)N[C@H](CN1CCCC1)[C@H](O)c1ccc2c(c1)OCCO2` [eliglustat], in [1] (PC-3M cells, 48 hour treatment), the “cytotoxicity (viability relative to control)” value is “dose-dependent cytotoxicity”. In addition, in [2] (RM-9 cells, 48 hour treatment), the “cytotoxicity (viability relative to control)” value is recorded as “dose-dependent cytotoxicity”. Besides, the “protein expression of mitophagy-associated marker LC3B-II” value in series [5] was “increased”. The “protein expression of Parkin and PINK1” value in [5] (acute (6 hr) treatment) was “increased”. In series [5] (acute (6 hr) treatment, 128 μM), the mitochondrial morphology result was “loss of the branched, fused-like-mitochondrial architecture and accumulation of punctate mitochondria co-localized with the lysosome”. Moreover, in series [6], the “anti-cancer effect (viability, MTS) following Cav-1 overexpression” value is “reduced the anti-cancer effects”. For the same compound, the “mechanism of acute cytotoxic effects (cytotoxicity, apoptosis at 4 hrs and 24 hrs)” value in [7] is listed as “non-apoptotic mechanism”. In addition, the “alterations in the lipidome” value in [3] is “accumulation of intracellular ceramides, acylcarnitines, lysophospholipids and diacylglycerols and reductions in glycosphingolipids, phospholipids and triacylglycerols”. Moreover, the RM-9 tumor growth result in [8] (C57BL/6N mice, 60 mg/kg daily intraperitoneal injection) is reported as “suppressed”. For the same compound, the “glycosphingolipids in RM-9 tumor tissue” value in series [8] (C57BL/6N mice, 60 mg/kg, metabolomics of tumor tissue) is “reductions in glycosphingolipids”. Further, in series [8] (setting [10]), the “BrdU-TUNEL staining in tumor tissue” value is “statistically significantly increased”, the “Cav-1 staining in tumor tissue” value is listed as “statistically significantly reduced”, the “HMGB1 staining in tumor tissue” value is recorded as “statistically significantly increased” and the “LC3B staining in tumor tissue” value is on record as “statistically significantly increased”. For the same compound, the “PCNA staining in tumor tissue” value in series [8] (setting [10]) is recorded as “statistically significantly reduced”. Further, in series [9], the “sensitivity to eliglustat (viability, MTS) after knockdown of CAV1” value is reported as “further sensitized”. The “alterations in the lipidome” value in series [4] was “accumulation of intracellular ceramides, acylcarnitines, lysophospholipids and diacylglycerols and reductions in glycosphingolipids, phospholipids and triacylglycerols”.
